Data from patent publication US20150025131A1 (priority 2013, published 2015).
Values after ≈ are worked out from the molar mass of the structure shown. “Also recorded” adds a separate entry of the source.

Assays:
serum peroxide = experiment: Adjuvant induced arthritis model, serum peroxide; type: in vivo, Sprague Dawley rats; details: AIA rats, daily intraperitoneal; Patuletin 25 mg/kg, indomethacin 5 mg/kg
Protocol: (§1) All studies were carried out using Female Sprague Dawley (SD) rats weighing 150-250 gms. Animals were kept at 21±2° C. and on a 12-h light/dark cycle, received standardized pelleted diet and tap water. Experiments were performed under the ethical guidelines of the International Association for the study of pain in conscious animals. Each group contains 12 animals with randomly distributed weights into each treatment group.
(§2) Arthritis was induced by injecting freshly prepared 100 μL of 1 mg suspension of lyophilized Mycobacterium tuberculosis H37Ra (MT H37Ra; DIFCO Laboratories, Detroit, Mich., USA), subcutaneously at the rat tail base using sterile hypodermic needle. […]
(§3) Peroxide (PO) and nitric oxide (NO), in serum were determined in the serum samples of both the normal and arthritic groups, using quantitative colorimetric assay kits, i.e., the Quantichrom ™ Nitric Oxide Assay Kit, and the Quantichrome™ Peroxide assay kit Diox-250 (BioAssay Systems, Hayward, Calif., USA). […] The samples were analyzed in duplicates using 96-well plate and the plate was read at 540 nm. The Quantichrome™ Peroxide assay kit Diox −250 system is an improved method which utilizes the oxidation of Fe^++ by peroxide present in the analyzed sample resulting in formation of purple complex that gives the accurate measure of peroxide level in the sample when read at 540-610 nm.

serum nitric oxide = experiment: Adjuvant induced arthritis model, serum nitric oxide; type: in vivo, Sprague Dawley rats; details: AIA rats, daily intraperitoneal; Patuletin 25 mg/kg, indomethacin 5 mg/kg
Protocol: as §1, §2, §3

[1] = system: PHA activated T cells isolated from human peripheral blood; experiment: Thymidine incorporation T cell proliferation assay (PHA activated); type: cell-based; details: Homo sapiens, T-cell, 72 h, read-out: Human T cell proliferation (IC50 μg/mL)
Protocol: Heparinized blood was obtained by vein puncture aseptically from healthy volunteers (25-38 years age). Blood (10 mL) was mixed with incomplete RPMI, layered on 5 mL of Lymphocyte separation medium and centrifuged at 400 g for 20 min at room temperature. Buffy layer was collected and mixed with incomplete RPMI and centrifuged at 4° C. for 10 min at 300 g. Cells were obtained after the RBCs (if any) lysis using hypotonic solution, and washed at 4° C. for 10 min at 300 g. The cells were then suspended in complete RPMI containing 5% FBS and their concentration was adjusted to 2×10^6 cells/mL for T-cell proliferation assay.
Cell proliferation assay was conducted through standard thymidine incorporation technique. Briefly, isolated T-cells from peripheral blood of healthy individuals were plated at a concentration of 2×10^6 cells/mL in a round bottom 96-well tissue culture plates. Cells were stimulated with 7.5 μg/mL of PHA. […] The plate was then incubated for 72 hours at 37° C. in 5% CO2 incubator. After 72 hours, cultures were pulsed with 0.5 μCi/well tritiated thymidine (Amersham Pharmacia Biotech), and further incubated for 18 h. Cells were harvested onto a glass fiber filters using cell harvester (Innotech, Dottikon, Switzerland). The level of the thymidine incorporated into the cells was measured by a liquid scintillation counter (LS 6500, Beckman Coulter, Fullerton, Calif., USA). Results were expressed as mean count per minute (CPM). The inhibitory activity of compounds on T-lymphocyte proliferation was calculated using the following formula: […]

IL-2 production = experiment: IL-2 cytokine production; type: cell-based; details: read-out: IL-2 inhibition (IC50 μg/mL)
[2] = system: ROS production from human neutrophils; experiment: Luminol enhanced chemiluminescence oxidative burst, isolated neutrophils; type: cell-based; details: Neutrophil, serum opsonized zymosan, read-out: Myeloperoxidase dependent Oxidative Burst (IC50 μg/mL) Neutrophils
Protocol: Intracellular effect was determined using human peripheral whole blood phagocytes and isolated neutrophils and from mice peritoneum macrophages, where luminol-enhanced chemillumenescence assay was applied. The effect on myeloperoxidase independent ROS production was determined using lucigenin on murine macrophages RAW.267 cells.
Table 2. […] 267 cells (murine macrophages). DPI is used as standard drug. Reading presents mean±SD of three determinations.
Heparinized blood was obtained by vein puncture aseptically, from healthy volunteers (25-38 years age). The buffy coat containing polymorhonuclear neutrophils (PMNs) was collected by dextran sedimentation, and cells were isolated after the LSM density gradient centrifugation. […]
Luminol enhanced chemiluminescence technique was applied to study the effect of compound on ROS from phagocytes, Using whole blood, neutrophil and macrophages Briefly, 25 μL diluted whole blood (1:50 dilution in sterile HBSS^++) or 25 μL of PMNs (1×10^6), or 25 μL of isolated macrophages (1×10^6) were incubated with 25 μL of compound in triplicates and using three different concentrations (1, 10 and 100 μg/mL) using white 96 wells plates. […] Results were monitored as relative light unit (RLU) reading, with peak and total integral values set with repeated scans at 60 seconds intervals, and 1 second points measuring time.

IL-1β production = IL-1β production from PMA differentiated, LPS activated THP-1 cells (ELISA); type: cell-based; details: Homo sapiens, 18 h, read-out: inhibition of IL-1β production (IC50)
Protocol: THP-1 (human monocytic leukemia) cells were maintained in RPMI-1640 supplemented with 10% FBS, 2 mmol/L glutamine, 5.5 mmol/L glucose, 50 μmol/L mercaptoethanol, 1 mmol/L sodium pyruvate, and 10 mmol/L HEPES and incubated at 37° C. in 5% CO2. Cells were grown in […] culture flask until they attained 70% confluency. Cells were then plated in 24-well tissue culture plates at a concentration of 2.5×10^5 cells/mL. Cells were differentiated into macrophages using PMA at a final concentration of 20 ng/mL and further incubated at 37° C. in 5% CO2 environment for 24 h. […] After addition of the compound cells were then incubated for 4 h for TNF-α production and 18 h for IL-1β production at 37° C. in 5% CO2. The supernatants were harvested and analyzed for the level of TNF-α and IL-1β, by human TNF-α and IL-1β Duo set ELISA kits, and according to the manufacturer's instructions.

COc1c(O)cc2oc(-c3ccc(O)c(O)c3)c(O)c(=O)c2c1O [Patuletin, 3,5,7,3′,4′-pentahydroxy-6-methoxy flavones]
level of peroxide in serum versus arthritic control group (serum peroxide): decrease; also recorded: non-significant reduction
level of nitric oxide in serum versus arthritic control group (serum nitric oxide): marked reduction; also recorded: significant decrease
IC50 [1]: 1.2 µg/mL (≈ 3.61 µM)
IC50 (IL-2 production): 14.8 µg/mL (≈ 44.5 µM)
IC50 [2]: 1.2 µg/mL
IC50 (IL-1β production): > 50 µg/mL
